The values that follow come from patent US9045445B2, “Glycine transporter-1 inhibitors, methods of making them, and uses thereof” (Albany Molecular Research, Inc., priority 2010, dated 2015).

Assay [1] has as its target T1, glycine transporter-2 (GlyT-2) (Homo sapiens, UniProt Q9Y345).
T1 construct: expressed in transfected cells
T1 sequence (Q9Y345 1-797): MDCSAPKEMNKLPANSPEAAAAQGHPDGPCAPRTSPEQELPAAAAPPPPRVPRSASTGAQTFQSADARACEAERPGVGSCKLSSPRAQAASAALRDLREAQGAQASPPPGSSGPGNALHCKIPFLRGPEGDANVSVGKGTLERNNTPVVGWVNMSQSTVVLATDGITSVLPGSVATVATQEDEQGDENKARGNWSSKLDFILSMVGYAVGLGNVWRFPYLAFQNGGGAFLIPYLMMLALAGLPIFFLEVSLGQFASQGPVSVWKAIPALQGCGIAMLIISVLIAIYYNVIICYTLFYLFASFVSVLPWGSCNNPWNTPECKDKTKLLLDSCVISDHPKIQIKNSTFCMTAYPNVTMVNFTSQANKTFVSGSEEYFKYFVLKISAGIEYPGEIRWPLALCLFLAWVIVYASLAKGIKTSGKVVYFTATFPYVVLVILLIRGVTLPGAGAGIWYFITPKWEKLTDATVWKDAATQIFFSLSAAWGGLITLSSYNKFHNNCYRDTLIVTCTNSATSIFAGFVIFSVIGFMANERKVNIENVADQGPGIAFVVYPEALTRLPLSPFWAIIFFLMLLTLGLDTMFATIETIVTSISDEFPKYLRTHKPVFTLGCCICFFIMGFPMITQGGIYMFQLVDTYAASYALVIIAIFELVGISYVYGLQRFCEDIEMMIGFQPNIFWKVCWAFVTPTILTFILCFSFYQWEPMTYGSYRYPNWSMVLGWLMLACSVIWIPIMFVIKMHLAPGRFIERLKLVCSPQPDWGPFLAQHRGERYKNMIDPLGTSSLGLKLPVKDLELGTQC
In words: [14C]glycine uptake assay in HEK-GlyT-2 transfected cells. It is filed as cell-based. The following applies: HEK-GlyT-2 cells.

The target in assay [2] is T2, glycine transporter-1 (GlyT-1) (Homo sapiens, UniProt P48067).
T2 construct: JAR cells (ATCC#HTB-144), which endogenously express GlyT-1; host or cells: JAR human choriocarcinoma cells
T2 sequence (P48067 1-706): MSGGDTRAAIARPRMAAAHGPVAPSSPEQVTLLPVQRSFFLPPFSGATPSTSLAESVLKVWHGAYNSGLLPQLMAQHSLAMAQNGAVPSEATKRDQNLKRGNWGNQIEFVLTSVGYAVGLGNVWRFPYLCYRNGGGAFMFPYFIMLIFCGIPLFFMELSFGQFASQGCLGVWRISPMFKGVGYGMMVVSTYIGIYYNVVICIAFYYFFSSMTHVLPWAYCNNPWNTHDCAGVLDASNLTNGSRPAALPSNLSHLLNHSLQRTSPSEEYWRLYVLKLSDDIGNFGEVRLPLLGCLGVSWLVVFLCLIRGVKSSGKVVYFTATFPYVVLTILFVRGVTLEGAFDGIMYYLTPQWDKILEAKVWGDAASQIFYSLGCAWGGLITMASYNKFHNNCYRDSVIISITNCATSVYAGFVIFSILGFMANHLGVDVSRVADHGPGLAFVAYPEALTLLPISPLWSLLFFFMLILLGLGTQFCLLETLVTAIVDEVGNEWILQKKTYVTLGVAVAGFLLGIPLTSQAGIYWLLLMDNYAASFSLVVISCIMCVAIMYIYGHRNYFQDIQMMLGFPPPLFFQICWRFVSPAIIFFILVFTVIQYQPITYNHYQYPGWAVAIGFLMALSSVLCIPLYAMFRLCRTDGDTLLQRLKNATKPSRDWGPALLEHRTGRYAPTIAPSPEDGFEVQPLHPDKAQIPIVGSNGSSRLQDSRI
In words: [14C]glycine uptake assay in JAR cells endogenously expressing GlyT-1 (scintillation proximity). The settings on record: JAR cells, [14C]glycine 5 μM, 3 hour incubation; read-out: GlyT-1 IC50. Format: cell-based. The method, boiled down:
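IC50 comes from a four-parameter fit of nine-point, duplicate curves measuring inhibition of 5 μM [14C]glycine uptake, read by scintillation proximity after 3 h at 37 °C. Cells are human JAR, which express GlyT-1 endogenously, given 10 min compound pre-treatment in pH 7.4 buffer with 5 mM alanine and 0.75% DMSO.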
A general note: Scintillation proximity formats need no separation of bound from free tracer.

SMILES strings stand for the structures. Where a name gives a salt, the structure may show the parent alone. Where only a bound is given, the exact number is not on record here.

As to `Cn1cnc(S(=O)(=O)N2CCN(C3(CNC(=O)c4c(Cl)cccc4Cl)CCCCCC3)CC2)c1` [compound 106, 2,6-Dichloro-N-((1-(4-(1-methyl-1H-imidazol-4-ylsulfonyl)piperazin-1-yl)cycloheptyl)methyl) benzamide Hydrochloride], the values for the IC50 in assay [1] and in assay [2] were above 75000 nM and 5 nM, respectively.
Take `Cc1ccc(C(=O)NCC2(N3CCN(S(=O)(=O)c4cn(C)cn4)CC3)CCCCC2)c(C)c1` [compound 94, 2,4-Dimethyl-N-((1-(4-(1-methyl-1H-imidazol-4-ylsulfonyl)piperazin-1-yl)cyclohexyl)methyl) benzamide Hydrochloride]: the results for the IC50 in assay [1] and in assay [2] were above 75000 nM and 13 nM, respectively.
The matching figures for `CCCS(=O)(=O)N1CCN(C2(CNC(=O)c3ccc(Cl)cc3Cl)CCCOC2)CC1` (stereo not drawn) [compound 125, 2,4-Dichloro-N-((3-(4-(propylsulfonyl)piperazin-1-yl)tetrahydro-2H-pyran-3-yl)methyl)benzamide Hydrochloride]: above 75000 nM and 177 nM.
The matching figures for `Cn1cnc(S(=O)(=O)N2CCN(C3(CNC(=O)c4c(F)cccc4F)CCCC3)CC2)c1` [compound 104, 2,6-Difluoro-N-((1-(4-(1-methyl-1H-imidazol-4-ylsulfonyl)piperazin-1-yl)cyclopentyl)methyl) benzamide Hydrochloride]: above 75000 nM and 346 nM.
Take `Cn1cnc(S(=O)(=O)N2CCN(C3(CNC(=O)c4ccccc4C(F)(F)F)CCC(F)(F)CC3)CC2)c1` [compound 176, N-((4,4-Difluoro-1-(4-(1-methyl-1H-imidazol-4-ylsulfonyl)piperazin-1-yl)cyclohexyl)methyl)-2-(trifluoromethyl)benzamide Hydrochloride]: the IC50 (usually the concentration needed to halve the response being measured) was 69200 nM in assay [1] and 3 nM in assay [2].
The matching figures for `CCCS(=O)(=O)N1CCN(C2(CNC(=O)Cc3ccc(Cl)cc3)CCCCC2)CC1` [compound 13, 2-(4-Chlorophenyl)-N-((1-(4-(propylsulfonyl)piperazin-1-yl)cyclohexyl)methyl) acetamide Hydrochloride]: above 75000 nM and 1270 nM.
For `Cn1cnc(S(=O)(=O)N2CCN(C3(CNC(=O)c4c(F)cccc4F)CCCOC3)CC2)c1` (stereo not drawn) [compound 127, 2,6-Difluoro-N-((3-(4-(1-methyl-1H-imidazol-4-ylsulfonyl)piperazin-1-yl)tetrahydro-2H-pyran-3-yl)methyl)benzamide Hydrochloride], the IC50 in assay [1] is above 75000 nM; in assay [2], 369 nM.
On to `Cc1cccc(C)c1C(=O)NCC1(N2CCN(S(=O)(=O)c3cn(C)cn3)CC2)CCCCC1` [compound 95, 2,6-Dimethyl-N-((1-(4-(1-methyl-1H-imidazol-4-ylsulfonyl)piperazin-1-yl)cyclohexyl)methyl) benzamide Hydrochloride], for which the values for the IC50 in assay [1] and in assay [2] were above 75000 nM and 1 nM, respectively.
The matching figures for `CCCS(=O)(=O)N1CCN(C2(CNC(=O)c3ccccc3C)CCCCC2)CC1` [compound 42, 2-Methyl-N-((1-(4-(propylsulfonyl)piperazin-1-yl)cyclohexyl)methyl) benzamide Hydrochloride]: above 35000 nM and 118 nM.
The matching figures for `Cn1cnc(S(=O)(=O)N2CCN(C3(CNC(=O)c4ccc(F)cc4F)CCCCC3)CC2)c1` [compound 100, 2,4-Difluoro-N-((1-(4-(1-methyl-1H-imidazol-4-ylsulfonyl)piperazin-1-yl)cyclohexyl)methyl) benzamide Hydrochloride]: above 75000 nM and 30 nM.
The matching figures for `CCCS(=O)(=O)N1CCN(C2(CNC(=O)c3c(N)cccc3Cl)CCN(C)CC2)CC1` [compound 116, 2-Amino-6-chloro-N-((1-methyl-4-(4-(propylsulfonyl)piperazin-1-yl)piperidin-4-yl)methyl)benzamide Hydrochloride]: above 75000 nM and 500 nM.
In the case of `Cn1cnc(S(=O)(=O)N2CCN(C3(CNC(=O)c4ccc(Cl)cc4Cl)CCCC3)CC2)c1` [compound 105, Hydrochloride], the IC50 in assay [1] was above 75000 nM; in assay [2] it was 102 nM.
On to `CCCS(=O)(=O)N1CCN(C2(CNC(=O)c3cccc(OC)c3)CCCCC2)CC1` [compound 29, 3-Methoxy-N-((1-(4-(propylsulfonyl)piperazin-1-yl)cyclohexyl)methyl) benzamide Hydrochloride], for which the IC50 in assay [1] is above 75000 nM; in assay [2] it was 766 nM.
The matching figures for `CCCS(=O)(=O)N1CCN(C2(CNC(=O)c3c(Cl)cc(Cl)cc3Cl)CCC(F)(F)CC2)CC1` [compound 260, 2,4,6-Trichloro-N-((4,4-difluoro-1-(4-(propylsulfonyl)piperazin-1-yl)cyclohexyl)methyl) benzamide Hydrochloride]: above 75000 nM and 17 nM.
The matching figures for `CCS(=O)(=O)N1CCN(C2(CNC(=O)c3ccc(C(F)(F)F)cc3Cl)CCC(F)(F)CC2)CC1` [compound 203, 2-Chloro-N-((1-(4-(ethylsulfonyl)piperazin-1-yl)-4,4-difluorocyclohexyl)methyl)-4-(trifluoromethyl) benzamide Hydrochloride]: above 75000 nM and 94 nM.
The matching figures for `CCCS(=O)(=O)N1CCN(C2(CNC(=O)c3ccc(Cl)cc3C)CCCCC2)CC1` [compound 9, 4-Chloro-2-methyl-N-((1-(4-(propylsulfonyl)piperazin-1-yl)cyclohexyl)methyl) benzamide Hydrochloride]: above 75000 nM and 22 nM.
As to `O=C(NCC1(N2CCN(S(=O)(=O)CC3CC3)CC2)CCCCC1)c1ccc(Cl)cc1Cl` [compound 84, 2,4-Dichloro-N-((1-(4-(cyclopropylmethyl-sulfonyl)piperazin-1-yl)cyclohexyl)methyl) benzamide Hydrochloride], the IC50 is above 75000 nM in assay [1] and 56 nM in assay [2].
The matching figures for `CCCS(=O)(=O)N1CCN(C2(CNC(=O)c3ccc(-c4ccccc4)cc3)CCCCC2)CC1` [compound 38, N-((1-(4-(Propylsulfonyl)piperazin-1-yl)cyclohexyl)methyl) biphenyl-4-carboxamide Hydrochloride]: 1400 nM and 172 nM.
As to `COc1cc(F)cc(C)c1C(=O)NCC1(N2CCN(S(=O)(=O)c3cn(C)cn3)CC2)CCCC1` [compound 103, 4-Fluoro-2-methoxy-6-methyl-N-((1-(4-(1-methyl-1H-imidazol-4-ylsulfonyl)piperazin-1-yl)cyclopentyl)methyl) benzamide Hydrochloride], the IC50 in assay [1] was above 75000 nM; in assay [2], 45 nM.
The matching figures for `CCCS(=O)(=O)N1CCN(C2(CNC(=O)c3ccc(Cl)cc3Cl)CCC(F)(F)CC2)CC1` [compound 136, 2,4-Dichloro-N-((4,4-difluoro-1-(4-(propylsulfonyl)piperazin-1-yl)cyclohexyl)methyl) benzamide Hydrochloride]: above 75000 nM and 36 nM.
The matching figures for `CCCS(=O)(=O)N1CCN(C2(CNC(=O)c3ccc(C)cc3C)CCCCC2)CC1` [compound 30, 2,4-Dimethyl-N-((1-(4-(propylsulfonyl)piperazin-1-yl)cyclohexyl)methyl) benzamide Hydrochloride]: above 75000 nM and 79 nM.
